Reference: patent publication US11802128B2, “Azetidine and pyrrolidine PARP1 inhibitors and uses thereof” (Xinthera, Inc., priority 2021, dated 2023)

Assays:
PARP2 = PARP2 (Homo sapiens (Human), UniProt Q9UGN5); test: Biochemical fluorescent polarization (FP) assay, displacement of PARPi-FL; assay type: binding; conditions: 20 nM protein, 3 nM PARPi-FL, 4 h at room temperature; read-out: IC50 FP PARP2
Summary of the method: (§1)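 Purified PARP1 or PARP2 at 20 nM final with 3 nM PARPi-FL in 50 mM Tris pH 8.0, 0.001% Triton X-100, 10 mM MgCl2, 150 mM NaCl. Incubated 4 h at room temperature, then fluorescence polarization read; controls with and without protein.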

PARP1 = PARP1 (Homo sapiens (Human), UniProt P09874); test: as above; assay type: binding; conditions: 20 nM protein, 3 nM PARPi-FL, 4 h at room temperature
Sequence of PARP1 (P09874 whole entry): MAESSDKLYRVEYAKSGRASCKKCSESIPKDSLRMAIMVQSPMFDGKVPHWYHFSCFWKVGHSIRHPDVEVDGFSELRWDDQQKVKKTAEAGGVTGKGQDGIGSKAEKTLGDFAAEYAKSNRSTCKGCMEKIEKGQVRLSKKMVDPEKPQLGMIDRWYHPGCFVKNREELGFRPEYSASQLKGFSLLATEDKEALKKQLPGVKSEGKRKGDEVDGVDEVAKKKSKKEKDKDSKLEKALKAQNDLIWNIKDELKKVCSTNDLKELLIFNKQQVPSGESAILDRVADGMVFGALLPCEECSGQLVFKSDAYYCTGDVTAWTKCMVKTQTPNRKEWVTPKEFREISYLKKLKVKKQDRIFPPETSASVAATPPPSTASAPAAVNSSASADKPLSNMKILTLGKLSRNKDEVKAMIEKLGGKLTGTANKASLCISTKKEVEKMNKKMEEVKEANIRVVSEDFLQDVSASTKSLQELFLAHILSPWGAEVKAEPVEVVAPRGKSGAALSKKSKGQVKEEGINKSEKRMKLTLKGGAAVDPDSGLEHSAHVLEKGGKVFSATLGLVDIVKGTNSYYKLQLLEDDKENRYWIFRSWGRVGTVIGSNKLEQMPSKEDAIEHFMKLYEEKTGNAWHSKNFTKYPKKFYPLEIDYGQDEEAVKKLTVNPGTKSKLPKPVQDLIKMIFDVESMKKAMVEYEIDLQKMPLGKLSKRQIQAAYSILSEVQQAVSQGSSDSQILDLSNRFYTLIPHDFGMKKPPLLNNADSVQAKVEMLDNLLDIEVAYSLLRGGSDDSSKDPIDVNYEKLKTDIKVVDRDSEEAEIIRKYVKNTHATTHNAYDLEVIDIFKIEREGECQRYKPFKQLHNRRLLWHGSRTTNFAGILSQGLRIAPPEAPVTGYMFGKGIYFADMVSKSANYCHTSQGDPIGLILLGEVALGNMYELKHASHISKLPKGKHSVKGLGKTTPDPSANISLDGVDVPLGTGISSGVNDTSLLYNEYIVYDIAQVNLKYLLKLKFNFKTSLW
Summary of the method: as §1

DLD-1 parental cells = test: Cell growth inhibition assay (CellTiter-Glo cell viability, 7 days); assay type: cell-based; conditions: Homo sapiens, 168 h
Summary of the method: (§2)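 Cells were seeded at 50 (DLD-1 parental), 200 (DLD-1 BRCA2−/−) or 500 (MDA-MB-436) cells/well onto 1:3 compound dilutions, top final 10 or 30 μM. Culture ran 7 days at 37 °C, 5% CO2. ATP was read by CellTiter-Glo 2.0, and IC50 was fitted from growth inhibition.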

DLD-1 BRCA2(−/−) cells = test: as above; assay type: cell-based; conditions: Homo sapiens, 168 h
Summary of the method: as §2

[1] = test system: MDA-MB-436 (mutated BRCA1) cells; test: as above; assay type: cell-based; conditions: Homo sapiens, 168 h, MDA-MB-436, 7 days
Summary of the method: as §2

Sequence of PARP2 (Q9UGN5 whole entry): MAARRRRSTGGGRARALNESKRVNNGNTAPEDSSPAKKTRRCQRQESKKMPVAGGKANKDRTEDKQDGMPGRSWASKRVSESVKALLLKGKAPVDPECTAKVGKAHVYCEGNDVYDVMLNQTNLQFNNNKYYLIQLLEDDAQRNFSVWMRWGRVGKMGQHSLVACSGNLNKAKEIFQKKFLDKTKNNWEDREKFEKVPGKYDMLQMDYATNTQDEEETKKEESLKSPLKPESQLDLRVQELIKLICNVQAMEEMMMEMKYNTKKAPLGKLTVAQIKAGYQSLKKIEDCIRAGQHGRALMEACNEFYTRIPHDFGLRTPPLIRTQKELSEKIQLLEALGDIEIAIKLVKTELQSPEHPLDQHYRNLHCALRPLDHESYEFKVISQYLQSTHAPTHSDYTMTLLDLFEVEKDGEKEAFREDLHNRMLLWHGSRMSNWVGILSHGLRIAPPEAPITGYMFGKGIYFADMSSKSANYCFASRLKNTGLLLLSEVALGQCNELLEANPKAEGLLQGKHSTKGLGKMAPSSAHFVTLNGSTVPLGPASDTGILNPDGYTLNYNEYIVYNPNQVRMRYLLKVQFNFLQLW

SMILES	IC50 (PARP2)	IC50 (PARP1)	EC50 (DLD-1 BRCA2(−/−) cells)	EC50 [1]	EC50 (DLD-1 parental cells)
CCc1cc2ncc(CN3CC[C@@H](Oc4ccc(C(=O)NC)nc4)C3)cc2[nH]c1=O [Example 2, 5-{[(3R)-1-[(7-ethyl-6-oxo-5H-1,5-naphthyridin-3-yl)methyl]pyrrolidin-3-yl]oxy}-N-methylpyridine-2-carboxamide]	> 10000 nM	4.2 nM	3.3 nM	1.6 nM	> 30000 nM
CNC(=O)c1ccc(O[C@H]2CN(Cc3cnc4cc(Cl)c(=O)[nH]c4c3)[C@@H]2C)cn1 [Example 77]	> 100000 nM	3.8 nM	3.8 nM	1.8 nM	–
CNC(=O)c1ccc(O[C@H]2CN(Cc3ccc4nc(C)c(=O)[nH]c4c3F)[C@@H]2C)cn1 [Example 91]	> 100000 nM	11 nM	23 nM	27 nM	–

Further lines, with some results ahead:

IC50 (PARP2)	IC50 (PARP1)	EC50 (DLD-1 BRCA2(−/−) cells)	EC50 [1]	SMILES	EC50 (DLD-1 parental cells)
5300 nM	3.8 nM	4.3 nM	1.8 nM	Cc1cc2ncc(CN3C[C@H](Oc4ccc(C(=O)NC5CC(F)(F)C5)nc4)[C@H]3C)cc2[nH]c1=O [Example 80]	–
6800 nM	4.5 nM	3.1 nM	2.1 nM	Cc1cc2ncc(CN3C[C@H](Oc4ccc(C(=O)N[C@H]5C[C@H](F)C5)nc4)[C@H]3C)cc2[nH]c1=O [Example 82]	–
48000 nM	8.8 nM	3 nM	1.4 nM	C[C@@H]1[C@@H](Oc2ccc(C(=O)NC3CC3)nc2)CN1Cc1cnc2c(c1)[nH]c(=O)c1ccoc12 [Example 84]	–
